According to patent US20070117743A1, “New antitumoral compounds” (priority 2003, published 2007):

What was measured:
Assay type in all cases: cell-based, human
LoVo-Dox = assay: SRB colorimetric assay of cell growth and viability, LoVo-Dox; conditions: 48 hours exposure
Summary of the method: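 Continuous 48-hour exposure of cells plated at 5×10^3 per well, with compounds diluted in DMSO:EtOH:PBS (0.5:0.5:99) over 10 to 10^−8 μg/mL. Staining with SRB and reading at 490 nm give GI, TGI and LC.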

K-562 = assay: SRB colorimetric assay of cell growth and viability, K-562; conditions: 48 hours exposure
LNCaP = assay: SRB colorimetric assay of cell growth and viability, LNCaP; conditions: 48 hours exposure
IGROV-ET = assay: SRB colorimetric assay of cell growth and viability, IGROV-ET; conditions: 48 hours exposure
A-549 = assay: SRB colorimetric assay of cell growth and viability, A-549; conditions: 48 hours exposure
DU-145 = assay: SRB colorimetric assay of cell growth and viability, DU-145; conditions: 48 hours exposure
HT-29 = assay: SRB colorimetric assay of cell growth and viability, HT-29; conditions: 48 hours exposure
PANC-1 = assay: SRB colorimetric assay of cell growth and viability, PANC-1; conditions: 48 hours exposure
[1] = SRB colorimetric assay of cell growth and viability, HMEC-1; conditions: human, HMEC-1 cells; 48 hours exposure; read-out: LC50 H-MEC-1
Source text: (§1) The finality of this assay is to interrupt the growth of a “in vitro” tumor cell culture by means a continued exhibition of the cells to the sample to be testing.
(§2) A colorimetric type of assay, using sulforhodamine B (SRB) reaction has been adapted for a quantitative measurement of cell growth and viability [following the technique described by Philip Skehan, et al. (1990), New colorimetric cytotoxicity assay for anticancer drug screening, J. Natl. Cancer Inst., 82:1107-1112].
(§3) This form of the assay employs 96 well cell culture microplates of 9 mm diameter (Faircloth, 1988; Mosmann, 1983). Most of the cell lines are obtained from American Type Culture Collection (ATCC) derived from different human cancer types.
(§4) Cells are maintained in RPMI 1640 10% FBS, supplemented with 0.1 g/l penicillin and 0.1 g/l streptomycin sulfate and then incubated at 37° C., 5% CO2 and 98% humidity. For the experiments, cells were harvested from subconfluent cultures using trypsin and resuspended in fresh medium before plating.
(§5) Cells are seeded in 96 well microtiter plates, at 5×10^3 cells per well in aliquots of 195 μL medium, and they are allowed to attach to the plate surface by growing in drug free medium for 18 hours. Afterward, samples are added in aliquots of 5 μL in a ranging from 10 to 10^−8 μg/mL, dissolved in DMSO:EtOH:PBS (0.5:0.5:99). After 48 hours exposure, the antitumor effect are measured by the SRB methodology: cells are fixed by adding 50 μL of cold 50% (wt/vol) trichloroacetic acid (TCA) and incubating for 60 minutes at 4° C. Plates are washed with deionized water and dried. One hundred μL of SRB solution (0.4% wt/vol in 1% acetic acid) is added to each microtiter well and incubated for 10 minutes at room temperature. […] Optical densities are read on a automated spectrophotometric plate reader at a single wavelength of 490 nm.
(§6) The values for mean+/− SD of data from triplicate wells are calculated. Some parameters for cellular responses can be calculated: GI=growth inhibition, TGI=total growth inhibition (cytostatic effect) and LC=cell killing (cytotoxic effect).

HMEC-1 = assay: as above; conditions: 48 hours exposure
Source text: as §1, §2, §3, §4, §5, §6

LoVo = assay: SRB colorimetric assay of cell growth and viability, LoVo; conditions: 48 hours exposure
IGROV-1 = assay: SRB colorimetric assay of cell growth and viability, IGROV-1; conditions: 48 hours exposure
SK-BR-3 = assay: SRB colorimetric assay of cell growth and viability, SK-BR-3; conditions: 48 hours exposure
SK-MEL-28 = assay: SRB colorimetric assay of cell growth and viability, SK-MEL-28; conditions: 48 hours exposure
SK-OV-3 = assay: SRB colorimetric assay of cell growth and viability, SK-OV-3; conditions: 48 hours exposure
Source text: as §1, §2, §3, §4
Cells are seeded in 96 well microtiter plates, at 5×10^3 cells per well in aliquots of 195 μL medium, and they are allowed to attach to the plate surface by growing in drug free medium for 18 hours. Afterward, samples are added in aliquots of 5 μL in a ranging from 10 to 10^−8 μg/mL, dissolved in DMSO:EtOH:PBS (0.5:0.5:99). After 48 hours exposure, the antitumor effect are measured by the SRB methodology: cells are fixed by adding 50 μL of cold 50% (wt/vol) trichloroacetic acid (TCA) and incubating for 60 minutes at 4° C. Plates are washed with deionized water and dried. One hundred μL of SRB solution (0.4% wt/vol in 1% acetic acid) is added to each microtiter well and incubated for 10 minutes at room temperature. Unbound SRB is removed by washing with 1% acetic acid. Plates are air dried and bound stain is solubilized with Tris buffer. Optical densities are read on a automated spectrophotometric plate reader at a single wavelength of 490 nm.
as §6

C/C=C1\NC(=O)[C@H](Cc2ccccc2)NC(=O)[C@@H](C(C)C)NC(=O)[C@@H]([C@@H](C)CC)NC(=O)[C@H](NC(=O)[C@H](NC(=O)[C@H](CCCCN)NC(=O)[C@H]2CCCN2C(=O)[C@H](NC(=O)[C@@H](NC(=O)[C@@H](NC(=O)[C@H](NC(=O)CCCC(C)C)C(C)C)[C@@H](C)O)C(C)C)C(C)C)[C@@H](C)CC)[C@@H](C)OC(=O)[C@H](C(C)C)NC1=O [Compound 5, [Lys^8]-KF]
GI50 (LoVo-Dox): 162 nM
TGI LOVO-DOX (LoVo-Dox): 2.98E−07 Molar
CC50 (LoVo-Dox; read-out: LC50 LOVO-DOX): 552 nM
GI50 (K-562): 771 nM
TGI K-562 (K-562): 1.65E−06 Molar
CC50 (K-562; read-out: LC50 K-562): 3550 nM
TGI LN-caP (LNCaP): 2.61E−08 Molar
GI50 (LNCaP; read-out: GI50 LN-caP): 14.2 nM
CC50 (LNCaP; read-out: LC50 LN-caP): 47.9 nM
GI50 (IGROV-ET): 240 nM
TGI IGROV-ET (IGROV-ET): 4.88E−07 Molar
CC50 (IGROV-ET; read-out: LC50 IGROV-ET): 2830 nM
TGI A-549 (A-549): 2.75E−07 Molar
GI50 (A-549; read-out: GI50 A-549): 129 nM
CC50 (A-549; read-out: LC50 A-549): 582 nM
GI50 (DU-145): 18.1 nM
LC50 (concentration causing 50% net cell kill) (DU-145): 56.9 nM
TGI DU-145 (DU-145): 3.20E−08 Molar
TGI HT-29 (HT-29): 2.81E−07 Molar
GI50 (HT-29; read-out: GI50 HT-29): 158 nM
CC50 (HT-29; read-out: LC50 HT-29): 498 nM
GI50 (PANC-1): 1140 nM
TGI PANC-1 (PANC-1): 2.37E−06 Molar
CC50 (PANC-1; read-out: LC50 PANC-1): 4920 nM
CC50 at 48 h [1]: 44.6 nM
TGI H-MEC-1 (HMEC-1): 2.63E−08 Molar
GI50 (HMEC-1; read-out: GI50 H-MEC-1): 15.6 nM
GI50 (LoVo): 155 nM
TGI LOVO (LoVo): 2.71E−07 Molar
CC50 (LoVo; read-out: LC50 LOVO): 478 nM
GI50 (IGROV-1): 183 nM
LC50 (concentration causing 50% net cell killing) (IGROV-1): 1230 nM
TGI IGROV (IGROV-1): 3.71E−07 Molar
GI50 (SK-BR-3): 169 nM
LC50 (SK-BR-3): 554 nM
TGI SK-BR-3 (SK-BR-3): 3.06E−07 Molar
GI50 (SK-MEL-28): 811 nM
TGI MEL-28 (SK-MEL-28): 1.87E−06 Molar
CC50 (SK-MEL-28; read-out: LC50 MEL-28): 4300 nM
TGI SKOV-3 (SK-OV-3): 4.08E−07 Molar
GI50 (SK-OV-3; read-out: GI50 SKOV-3): 196 nM
CC50 (SK-OV-3; read-out: LC50 SKOV-3): 1490 nM
